Residue numbers refer to the chain shown, from its start. One block for each compound: values may come before it.
Columns and labels:
[1] = target: T1, wild-type rabbit PepT1 (Oryctolagus cuniculus, UniProt P36836); assay: Inhibition of [3H]-D-Phe-L-Gln uptake into Xenopus oocytes expressing wild-type PepT1 (competition, Ki); assay type: cell-based; conditions: PepT1, data not shown; read-out: Ki (PepT1 substrate)
T1 construct: expressed in transfected cells; host or cells: Xenopus laevis oocytes injected with cRNA
T1 sequence (P36836 1-707): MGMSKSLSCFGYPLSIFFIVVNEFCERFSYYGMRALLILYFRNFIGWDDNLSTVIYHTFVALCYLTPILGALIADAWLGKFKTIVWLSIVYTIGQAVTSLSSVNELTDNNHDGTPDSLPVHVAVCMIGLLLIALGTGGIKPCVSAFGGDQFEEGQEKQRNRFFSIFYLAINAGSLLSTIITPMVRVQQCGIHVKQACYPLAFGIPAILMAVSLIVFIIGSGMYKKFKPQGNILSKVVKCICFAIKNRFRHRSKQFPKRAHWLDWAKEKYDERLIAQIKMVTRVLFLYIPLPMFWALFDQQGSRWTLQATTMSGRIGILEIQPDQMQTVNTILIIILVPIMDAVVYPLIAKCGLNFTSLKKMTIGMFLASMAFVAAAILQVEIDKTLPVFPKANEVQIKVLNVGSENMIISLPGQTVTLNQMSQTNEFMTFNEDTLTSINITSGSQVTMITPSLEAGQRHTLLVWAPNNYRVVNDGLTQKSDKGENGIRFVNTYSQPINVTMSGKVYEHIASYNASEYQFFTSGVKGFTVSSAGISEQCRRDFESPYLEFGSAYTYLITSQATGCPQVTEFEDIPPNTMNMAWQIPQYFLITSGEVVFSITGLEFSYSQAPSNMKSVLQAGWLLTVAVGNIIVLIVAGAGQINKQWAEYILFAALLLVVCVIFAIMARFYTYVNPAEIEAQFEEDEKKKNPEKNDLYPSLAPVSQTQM
Description: (§1) Zero-trans uptake of [^3H]-D-Phe-L-Gln (17.4 Ci/mmole, custom synthesised, Cambridge Research Biochemicals, Stockton-on-Tees, UK) was performed as previously described ([Meredith, 2004]). Briefly, 5 oocytes were incubated in 100 μl of uptake medium (95 mM NaCl, 2 mM KCl, 1 mM CaCl2, 0.42 mM MgCl2, 10 mM Tris/Hepes pH 7.4 or Tris/Mes pH 5.5) with tracer (0.4 μM) [^3H]-D-Phe-L-Gln. After incubation, the oocytes were washed sequentially five times in 1 ml of ice-cold 120 mM NaCl solution, lysed individually with 100 μl 2% (w/v) SDS and liquid scintillation counted. As a control non-injected oocytes were also incubated in uptake medium with [^3H]-D-Phe-L-Gln as above.
The affinity of wild-type and mutant PepT1 were assessed by competition studies with 0.4 μM [^3H]-D-Phe-L-Gln and Gly-L-Gln present in the uptake medium in concentrations from 0 to 2 mM using the protocol above, and the Ki calculated using the method of [Deves and Boyd (1989)].

[2] = target: T2, wild-type PepT1 (Oryctolagus cuniculus, UniProt P36836); assay: Diethylpyrocarbonate inhibition of PepT1-mediated dipeptide uptake and protection by substrates; assay type: cell-based, rabbit; conditions: for protection of PepT1 from DEPC inhibition: 5 mM present during 1 mM DEPC incubation (15 min), uptake measured over 1 h
T2 construct: expressed in transfected cells; host or cells: Xenopus laevis oocytes injected with cRNA
T2 sequence (P36836 1-707): T1 sequence (P36836 1-707)
Description: as §1
Diethylpyrocarbonate (DEPC) inhibition of PepT1 was performed using a similar protocol to that of [Terada, Saito, and Inui (1998)]. Briefly, PepT1 oocytes were preincubated with 1 mM DEPC for 15 min at pHout 5.5 in the absence or presence of the PepT1 substrates Gly-L-Gln, N-Acetyl-Phe ([Meredith et al., 2000]), and L-Ala-Tyramine (custom synthesised) and the non-substrate Tyr (all 5 mM). The oocytes were then washed in uptake medium before uptake assays were performed as detailed above.

[3] = target: T2, wild-type PepT1; assay: Membrane potential of oocytes expressing wild-type PepT1 (single microelectrode); assay type: cell-based, rabbit; conditions: 10 mM, pHout 5.5, 1 min
Description: (§2) Measurements of membrane potential were made by impaling oocytes with a single glass microelectrode (Intra 767 amplifier, WPI, Stevenage, Hertfordshire, UK) perfused in uptake medium (as above) with or without 0.4 μM D-Phe-L-Gln (synthesised in house), 0.6 mM Gly-L-Gln (Sigma, Poole, UK) or 10 mM 4-aminobenzoic acid (4-AMBA, Sigma). Two-electrode voltage clamp (TEVC) was performed by placing oocytes in a 0.1 ml recording chamber and perfusing with uptake solution (pH 5.5 or 7.4) at a rate of 15 ml/min. Oocytes were impaled by two agarose-cushioned microelectrodes filled with 3 M KCl (0.5–2.0 MΩ) and voltage-clamped at −60 mV using a Geneclamp 500B amplifier and PCLAMP 8.1 software (Axon Instruments, CA, USA). The holding potential was stepped from −60 mV over the range of −150 to +50 mV in 10 mV steps, each pulse lasting 100 ms, and returning to −60 mV in between test voltage pulses. Typically traces were filtered at 1 kHz during recording and digitized at 0.5–5 kHz using the DigiData 1200 interface (Axon Instruments, CA, USA). All experiments were carried out at room temperature.

[4] = target: T3, R282E-PepT1 (Oryctolagus cuniculus, UniProt P36836, R282E); assay: Membrane potential of oocytes expressing R282E-PepT1 (single microelectrode); assay type: cell-based, rabbit; conditions: 10 mM, pHout 5.5, 1 min
T3 construct: expressed in transfected cells; host or cells: Xenopus laevis oocytes injected with cRNA
T3 sequence (P36836 1-707 R282E): T1 sequence (P36836 1-707) with R282E
Description: as §2

SMILES: Nc1ccc(C(=O)O)cc1 [4-AMBA, 4-aminobenzoic acid]
membrane potential depolarisation [3]: failed to induce a depolarisation | membrane potential depolarisation [4]: failed to induce a depolarisation

SMILES: CCOC(=O)OC(=O)OCC [DEPC, Diethylpyrocarbonate]
inhibition of PepT1 mediated dipeptide uptake ([2]; 1 mM, 15 min preincubation, pHout 5.5, uptake measured over 1 h): completely inhibited

Results, then the compound that gave them:

Ki [1]: ~100 µM | protection of PepT1 from DEPC inhibition [2]: only partially prevented
SMILES: C[C@H](N)C(=O)NCCc1ccc(O)cc1 [L-Ala-Tyramine]

protection of PepT1 from DEPC inhibition [2]: not
SMILES: N[C@@H](Cc1ccc(O)cc1)C(=O)O [Tyr]

protection of PepT1 from DEPC inhibition [2]: largely prevented
SMILES: CC(=O)NC(Cc1ccccc1)C(=O)O (stereo not shown) [N-Acetyl-Phe]

From publication PMC2267855, “Site-directed mutagenesis of Arginine282 suggests how protons and peptides are co-transported by rabbit PepT1” (The International Journal of Biochemistry & Cell Biology, 2008)
